Here are results for seven molecules from patent US9938267B2, “Heterocyclic inhibitors of glutaminase” (Calithera Biosciences, Inc., priority 2011, dated 2018).

Data set [1] concerns HCT116 colon carcinoma xenograft. The experiment in a line: HCT116 colon carcinoma xenograft efficacy study. Particulars: female scid/bg mice, intraperitoneal, twice daily; FIG. 1. Type of data set: in vivo. As for the experimental part: Certain compounds were assayed for in vivo efficacy in xenograft models as follows.
Female scid/bg mice, approximately 6 weeks of age, were implanted subcutaneously on the right flank with 5×10^6 HCT116 cells per mouse in a volume of 100 uL of sterile PBS. When tumors reached a volume of 50-100 mm^3, mice were randomized to groups of n=10 to receive either vehicle or test compound delivered twice daily by intraperitoneal injection. Tumors were measured three times per week using Vernier calipers and tumor volume calculated using the formula: Volume=(Length×Width^2/2), where length and width are the longest perpendicular sides of the tumor. Dosing continued twice daily until control tumors reached a size of 2000 mm^3. Statistical comparisons were made using a 2-way ANOVA with Bonferroni post-test.

The target of data set [2] is T1, recombinant form of Glutaminase 1 (GAC) (Homo sapiens, UniProt O94925). The experiment in a line: Recombinant enzyme assay - time dependence (60 minutes enzyme/compound preincubation). Format: biochemical. Particulars: read-out: GAC Delta N2 IC50 60 min preinc. As for the experimental part:
(§1) The enzyme/compound mix was sealed with sealing foil (USA Scientific) and allowed to incubate, with mild agitation, for 60 minutes at 20° C. Enzymatic reaction was started with the addition of 50 μL of substrate solution (50 mM Tris-HCl pH 8.0, 0.2 mM EDTA, 150 mM K2HPO4, 0.1 mg/ml BSA, 1 mM DTT, 20 mM L-glutamine, 2 mM NAD^+, and 10 ppm antifoam) and read in a Molecular Devices M5 plate reader at 20° C. The plate reader was configured to read absorbance (λ=340 nm) in kinetic mode for 15 minutes. Data was recorded as milli-absorbance units per minute and slopes were compared to a control compound and a DMSO-only control on the same plate. Compounds with slopes less than the DMSO control were considered inhibitors and plate variability was assessed using the control compound.

In data set [3] the test system is P493-6 (myc "on") cells. As to the kind of experiment: Cell proliferation assay (72 hrs, Cell Titer Glo or Viacount FACS). Particulars: read-out: Cell prolif P493 72 h IC50; P493 cells, 72 h. Format: cell-based. On the procedure: P493-6 (myc “on”) cells were maintained in growth media (RPMI-1640, 10% FBS, 2 mM glutamine, 100 units/ml Penicillin and 100 μg/ml streptomycin) at 37° C. with 5% CO2. For compound assay, P493-6 cells were plated in 96-well V-bottom plates on the day of compound addition in 50 μl of growth media at a cell density of 200,000 cells/ml (10,000 cells/well). Compounds were serially diluted in 100% DMSO at 200-times the final concentration. Compounds were diluted 100-fold into growth media and then 50 μl of this mixture was added to cell plates making the final concentration of DMSO 0.5%. Cells were incubated with compound for 72 hrs at 37° C. with 5% CO2 and analyzed for antiproliferative effects either by Cell Titer Glo (Promega) or FACS analysis using the Viacount (Millipore) kit on the Guava instrument.

In data set [4] the target is T1, recombinant form of Glutaminase 1 (GAC). The experiment in a line: Recombinant enzyme assay (GAC, GDH-coupled absorbance, no preincubation). Type of data set: biochemical. To be noted: read-out: GAC Delta N2 IC50 no preinc. As for the experimental part: as §1, with “Enzymatic” for “The enzyme/compound mix was sealed with sealing foil (USA Scientific) and allowed to incubate, with mild agitation, for 60 minutes at 20° C. Enzymatic”, “enzyme” for “substrate”, “DTT,” for “DTT, 20 mM L-glutamine, 2 mM NAD^+, and”, “antifoam, 4 units/ml GDH, 4 mM adenosine diphosphate, and 4 nM GAC)” for “antifoam)”

The nature of data set [5]: Solubility (vortex mixed at room temperature, filtered, HPLC quantitation). Type of data set: physicochemical. On the procedure: Ca. 1 mg portions of test article were combined with 120 μL solvent in wells of a 96×2 mL polypropylene plate. […] The contents of all wells were then filtered through a 0.45 μm GHP filter plate to yield clear filtrates. 5 μL of each filtrate was diluted into 100 μL DMF and vortex mixed to yield HPLC samples. Duplicate quantitation standards for each test article were prepared by diluting weighed portions of solid test article in measured volumes of DMF. 2 μL of each HPLC sample and quantitation standard were analyzed by HPLC using the method outlined in Table 5. Dissolved test article concentrations were calculated by peak area ratio against the appropriate quantitation standards.

For data set [6], the system named is Caco-2 cell monolayers. As to the kind of experiment: Caco-2 permeability assay (bidirectional). Type of data set: in vitro ADME. From the text: Caco-2 cells are commonly used in a confluent monolayer on a cell culture insert filter. When cultured in this format and under specific conditions, the cells become differentiated and polarized such that their phenotype, morphologically and functionally resembles the enterocytes lining the small intestine. The cell monolayer provides a physical and biochemical barrier to the passage of small molecules, and is widely used across the pharmaceutical industry as an in vitro model of the human small intestinal mucosa to predict the absorption of orally administered drugs (Hidalgo et al., Gastroenterology, 1989; Artursson, J. Pharm. Sci., 1990). The correlation between the in vitro apparent permeability (P ? app) across Caco-2 monolayers and the in vivo absorption is well established (Artursson et al., Biochem. Biophys. Res. Comm., 1991).
The present assay was used to determine the bidirectional permeability of the compounds of the invention through Caco-2 cell monolayers. Caco-2 cells were grown in confluent monolayers where the media of both the apical (A) and basolateral (B) sides were at pH 7.4. Compounds were dosed at 1 μM in the presence of 200 μM Lucifer Yellow, on the apical side (A→B) or the basolateral side (B→A) for assessment, in duplicate.

≈ marks a conversion by molar mass, not a printed value.

For the molecule `O=C(CCN1CCOCC1)OCC(C(=O)Nc1nnc(CCCCc2nnc(NC(=O)C(COC(=O)CCN3CCOCC3)c3ccccc3)s2)s1)c1ccccc1` (stereo not shown) [Compound 188, {[5,5′-(butane-1,4-diyl)-bis(1,3,4-thiadiazole-5,2-diyl)]-bis(azanediyl)}-bis(3-oxo-2-phenylpropane-3,1-diyl)-bis(3-morpholinopropanoate)], the tumor size entry in data set [1] was “reduced tumor size”. For `NCc1cccc(CC(=O)Nc2nnc(CCCCc3nnc(NC(=O)Cc4cccc(CN)c4)s3)s2)c1` [Compound 325], the IC50 in data set [2] was determined as 0.17 µM; in data set [3], 0.03 µM; in data set [4], 0.66 µM. In the case of `CCCC(=O)OCN(C(=O)Cc1ccccc1)c1nnc(CCCCc2ccc(NC(=O)Cc3ccccc3)nn2)s1` [Compound 402], the Solubility in data set [5] (10% CrEL/50 mM cit) was found to be 157 µg/mL (≈ 0.268 mM); in data set [5] (PEG400), 30179 µg/mL (≈ 51.4 mM). For the molecule `O=C(Cc1cccc(OC(F)(F)F)c1)Nc1ccc(CCCCc2nnc(NC(=O)C(O)c3cccc(Cl)c3)s2)nn1` (stereo not shown) [Compound 447], the Solubility in data set [5] (PG) was determined as 8265 µg/mL (≈ 13.3 mM). In the case of `O=C(Cc1cccc(OC(F)(F)F)c1)Nc1ccc(CCCCc2nnc(NC(=O)Cc3ccccc3)s2)nn1` [Compound 585], the Solubility in data set [5] (Capryol 90) worked out at 1744 µg/mL (≈ 3.06 mM). Take `O=C(Cc1cccc(OC(F)(F)F)c1)Nc1ccc(CCCCc2nnc(NC(=O)Cc3cccc(F)c3)s2)nn1` [Compound 679]: the “Significant Efflux” value in data set [6] is “No”. In turn, `O=C(Cc1cccc(OC(F)(F)F)c1)Nc1ccc(CCCCc2nnc(NC(=O)[C@@H](O)c3ccccc3)s2)nn1` [Compound 703] came in with a Solubility in data set [5] (20% HPBCD/50 mM cit) of 651 µg/mL (≈ 1.11 mM).
